Results: patent US20230167073A1 (Teijin Pharma Limited, priority 2020, published 2023)

Each compound was assayed against T1, Human TRPC6 (Homo sapiens, UniProt Q9Y210) (assay: Evaluation of TRPC6 channel inhibitory activity (1), FLIPR Calcium 5 Assay Kit, OAG stimulation (Compound Nos. 1-1293)). Conditions: Human TRPC6 stably-expressing cells, OAG 30 μM, FLIPR Calcium 5 Assay Kit; read-out: Inhibitory activity (pIC50 class) (converted).
T1 construct: expressed in transfected cells
T1 sequence (Q9Y210 1-931): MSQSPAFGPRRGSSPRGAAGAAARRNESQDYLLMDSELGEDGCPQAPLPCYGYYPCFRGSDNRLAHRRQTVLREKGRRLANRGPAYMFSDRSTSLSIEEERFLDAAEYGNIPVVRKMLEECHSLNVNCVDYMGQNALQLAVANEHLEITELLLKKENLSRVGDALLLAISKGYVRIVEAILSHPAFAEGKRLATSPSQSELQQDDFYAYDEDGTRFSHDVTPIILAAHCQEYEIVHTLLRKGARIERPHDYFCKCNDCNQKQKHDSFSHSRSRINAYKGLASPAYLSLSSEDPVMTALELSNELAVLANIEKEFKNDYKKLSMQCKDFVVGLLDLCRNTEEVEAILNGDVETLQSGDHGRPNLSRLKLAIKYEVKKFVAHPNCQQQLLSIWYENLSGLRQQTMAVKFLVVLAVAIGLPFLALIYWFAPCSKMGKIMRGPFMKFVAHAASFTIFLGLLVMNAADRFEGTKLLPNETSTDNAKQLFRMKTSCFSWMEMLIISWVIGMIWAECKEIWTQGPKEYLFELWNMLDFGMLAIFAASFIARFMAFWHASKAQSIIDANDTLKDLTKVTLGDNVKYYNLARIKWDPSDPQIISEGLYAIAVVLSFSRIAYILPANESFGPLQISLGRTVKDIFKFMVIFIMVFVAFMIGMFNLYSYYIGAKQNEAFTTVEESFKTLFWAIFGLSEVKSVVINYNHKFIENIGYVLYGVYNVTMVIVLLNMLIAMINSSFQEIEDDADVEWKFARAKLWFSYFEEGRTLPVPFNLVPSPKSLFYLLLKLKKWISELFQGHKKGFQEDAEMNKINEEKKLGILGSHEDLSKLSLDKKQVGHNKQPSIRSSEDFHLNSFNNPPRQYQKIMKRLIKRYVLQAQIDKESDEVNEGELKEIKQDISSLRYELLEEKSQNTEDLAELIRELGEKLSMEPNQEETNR
Format: cell-based
Procedure, shortened: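 TRPC6 (human) stable cells, 24 h culture; Ca5 no-wash dye + probenecid 30 min; cpd 20 min; OAG 30 μM final; ΔF (pre-cpd min to post-OAG max); 0%/100% = no cpd / no cpd + no OAG; 4PL → pIC50, binned +/++/+++.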

SMILES	IC50
N#Cc1ccc(-c2ncc(CN)cn2)c(Oc2nnc(Br)s2)c1 [compound 700, 4-[5-(aminomethyl)pyrimidin-2-yl]-3-[(5-bromo-1,3,4-thiadiazol-2-yl)oxy]benzonitrile]	> 1000 nM
N#Cc1ccc(-c2ncc(CCN)cn2)c(Oc2nnc(N3CCCCC3)s2)c1 [compound 704, 4-[5-(2-aminoethyl)pyrimidin-2-yl]-3-[(5-piperidin-1-yl-1,3,4-thiadiazol-2-yl)oxy]benzonitrile]	< 10 nM
N#Cc1ccc(-c2ncc(CN)cn2)c(Oc2nnc(N3CCCCC3)s2)c1 [compound 707, 4-[5-(aminomethyl)pyrimidin-2-yl]-3-[(5-piperidin-1-yl-1,3,4-thiadiazol-2-yl)oxy]benzonitrile]	10 to 1000 nM
Cc1nc(Oc2cc(C#N)ccc2-c2ncc(CN)cn2)cc(N2CCO[C@@H](C)C2)n1 [compound 708, 4-[5-(aminomethyl)pyrimidin-2-yl]-3-[2-methyl-6-[(2S)-2-methylmorpholin-4-yl]pyrimidin-4-yl]oxybenzonitrile]	< 10 nM
Cc1nc(Oc2cc(C#N)ccc2-c2ncc(CN)cn2)cc(N2C[C@@H](C)O[C@@H](C)C2)n1 [compound 709, 4-[5-(aminomethyl)pyrimidin-2-yl]-3-[6-[(2R,6S)-2,6-dimethylmorpholin-4-yl]-2-methylpyrimidin-4-yl]oxybenzonitrile]	10 to 1000 nM
Cc1nc(Oc2cc(C#N)ccc2-c2ncc(CN)cn2)cc(N2CCOC(C)(C)C2)n1 [compound 710, 4-[5-(aminomethyl)pyrimidin-2-yl]-3-[6-(2,2-dimethylmorpholin-4-yl)-2-methylpyrimidin-4-yl]oxybenzonitrile]	10 to 1000 nM
CC(C)c1cc(Oc2cc(C#N)ccc2-c2ccc(CN)n3ccnc23)n(C)n1 [compound 711, 4-[5-(aminomethyl)imidazo[1,2-a]pyridin-8-yl]-3-(2-methyl-5-propan-2-ylpyrazol-3-yl)oxybenzonitrile]	< 10 nM
N#Cc1ccc(-c2ncc(CN)cn2)c(Oc2cnnc(C3CC3)c2)c1 [compound 713, 4-[5-(aminomethyl)pyrimidin-2-yl]-3-(6-cyclopropylpyridazin-4-yl)oxybenzonitrile]	10 to 1000 nM
N#Cc1ccc(-c2ncc(CN)cn2)c(Oc2cnnc(N3CCCC3)c2)c1 [compound 714, 4-[5-(aminomethyl)pyrimidin-2-yl]-3-(6-pyrrolidin-1-ylpyridazin-4-yl)oxybenzonitrile]	< 10 nM
N#Cc1ccc(-c2ncc(CN)cn2)c(Oc2cnnc(N3CCCCC3)c2)c1 [compound 715, 4-[5-(aminomethyl)pyrimidin-2-yl]-3-(6-piperidin-1-ylpyridazin-4-yl)oxybenzonitrile]	< 10 nM
N#Cc1ccc(-c2ccc(CCN)cn2)c(Oc2nnc(N3CCOCC3)s2)c1 [compound 717, 4-[5-(2-aminoethyl)pyridin-2-yl]-3-[(5-morpholin-4-yl-1,3,4-thiadiazol-2-yl)oxy]benzonitrile]	10 to 1000 nM
N#Cc1ccc(-c2ccc(CCN)cn2)c(Oc2nnc(N3CCCC3)s2)c1 [compound 719, 4-[5-(2-aminoethyl)pyridin-2-yl]-3-[(5-pyrrolidin-1-yl-1,3,4-thiadiazol-2-yl)oxy]benzonitrile]	10 to 1000 nM
N#Cc1ccc(-c2ncc(CN)cn2)c(Oc2nnc(N3CCC3)s2)c1 [compound 720, 4-[5-(aminomethyl)pyrimidin-2-yl]-3-[[5-(azetidin-1-yl)-1,3,4-thiadiazol-2-yl]oxy]benzonitrile]	> 1000 nM
N#Cc1ccc(-c2ncc(CN)cn2)c(Oc2nnc(N3CC(F)C3)s2)c1 [compound 721, 4-[5-(aminomethyl)pyrimidin-2-yl]-3-[[5-(3-fluoroazetidin-1-yl)-1,3,4-thiadiazol-2-yl]oxy]benzonitrile]	> 1000 nM
N#Cc1ccc(-c2ncc(CCN)cn2)c(Oc2nnc(N3CC(F)C3)s2)c1 [compound 722, 4-[5-(2-aminoethyl)pyrimidin-2-yl]-3-[[5-(3-fluoroazetidin-1-yl)-1,3,4-thiadiazol-2-yl]oxy]benzonitrile]	10 to 1000 nM
N#Cc1ccc(-c2ncc(CCN)cn2)c(Oc2nnc(N3CCOCC3)s2)c1 [compound 723, 4-[5-(2-aminoethyl)pyrimidin-2-yl]-3-[(5-morpholin-4-yl-1,3,4-thiadiazol-2-yl)oxy]benzonitrile]	10 to 1000 nM
CCN(CC)c1nnc(Oc2cc(C#N)ccc2-c2ncc(CCN)cn2)s1 [compound 724, 4-[5-(2-aminoethyl)pyrimidin-2-yl]-3-[[5-(diethylamino)-1,3,4-thiadiazol-2-yl]oxy]benzonitrile]	< 10 nM
N#Cc1ccc(-c2ncc(CN)cn2)c(Oc2nnc(N3CCCC3)s2)c1 [compound 725, 4-[5-(aminomethyl)pyrimidin-2-yl]-3-[(5-pyrrolidin-1-yl-1,3,4-thiadiazol-2-yl)oxy]benzonitrile]	> 1000 nM

Results, then the compound that gave them:

IC50	SMILES
> 1000 nM	Cc1cc(Oc2cc(C#N)ccc2-c2ccc([C@H](O)CN)cn2)cc(-c2ncccn2)n1 [compound 692, 4-[5-[(1S)-2-amino-1-hydroxyethyl]pyridin-2-yl]-3-(2-methyl-6-pyrimidin-2-ylpyridin-4-yl)oxybenzonitrile]
10 to 1000 nM	Cc1cc(Oc2cc(C#N)ccc2-c2ccc([C@H](O)CN)cn2)cc(-c2cnccn2)n1 [compound 693, 4-[5-[(1S)-2-amino-1-hydroxyethyl]pyridin-2-yl]-3-(2-methyl-6-pyrazin-2-ylpyridin-4-yl)oxybenzonitrile]
10 to 1000 nM	Cc1cc(Oc2cc(C#N)ccc2-c2ccc([C@H](O)CN)cn2)cc(-c2nc(C)cs2)n1 [compound 694, 4-[5-[(1S)-2-amino-1-hydroxyethyl]pyridin-2-yl]-3-[2-methyl-6-(4-methyl-1,3-thiazol-2-yl)pyridin-4-yl]oxybenzonitrile]
< 10 nM	N#Cc1ccc(-c2ccc(CN)cn2)c(Oc2cnnc(C3CC3)c2)c1 [compound 695, 4-[5-(aminomethyl)pyridin-2-yl]-3-(6-cyclopropylpyridazin-4-yl)oxybenzonitrile]
< 10 nM	N#Cc1ccc(-c2ccc(CN)cn2)c(Oc2cnnc(N3CCCC3)c2)c1 [compound 696, 4-[5-(aminomethyl)pyridin-2-yl]-3-(6-pyrrolidin-1-ylpyridazin-4-yl)oxybenzonitrile]
< 10 nM	N#Cc1ccc(-c2ccc(CN)cn2)c(Oc2cnnc(N3CCCCC3)c2)c1 [compound 697, 4-[5-(aminomethyl)pyridin-2-yl]-3-(6-piperidin-1-ylpyridazin-4-yl)oxybenzonitrile]
10 to 1000 nM	CN(C)c1cc(Oc2cc(C#N)ccc2-c2ccc(CN)cn2)cnn1 [compound 698, 4-[5-(aminomethyl)pyridin-2-yl]-3-[6-(dimethylamino)pyridazin-4-yl]oxybenzonitrile]
> 1000 nM	N#Cc1ccc(-c2ncc(CN)cn2)c(Oc2nnc(-c3ccccn3)s2)c1 [compound 699, 4-[5-(aminomethyl)pyrimidin-2-yl]-3-[(5-pyridin-2-yl-1,3,4-thiadiazol-2-yl)oxy]benzonitrile]
< 10 nM	Cc1cc(Oc2cc(C#N)ccc2-c2ncc(C(C)N)cn2)cc(N2CCOCC2)n1 (stereo not drawn) [compound 701]
< 10 nM	CC(N)c1cnc(-c2ccc(C#N)cc2Oc2cc(-c3ccccn3)nn2C)nc1 (stereo not drawn) [compound 702, 4-[5-(1-aminoethyl)pyrimidin-2-yl]-3-(2-methyl-5-pyridin-2-ylpyrazol-3-yl)oxybenzonitrile]
10 to 1000 nM	N#Cc1ccc(-c2ncc(CCN)cn2)c(Oc2nnc(-c3ccccn3)s2)c1 [compound 703, 4-[5-(2-aminoethyl)pyrimidin-2-yl]-3-[(5-pyridin-2-yl-1,3,4-thiadiazol-2-yl)oxy]benzonitrile]
10 to 1000 nM	N#Cc1ccc(-c2ncc(CN)cn2)c(Oc2nnc(-c3ccccc3)s2)c1 [compound 705, 4-[5-(aminomethyl)pyrimidin-2-yl]-3-[(5-phenyl-1,3,4-thiadiazol-2-yl)oxy]benzonitrile]
< 10 nM	N#Cc1ccc(-c2ncc(CCN)cn2)c(Oc2nnc(-c3ccccc3)s2)c1 [compound 706, 4-[5-(2-aminoethyl)pyrimidin-2-yl]-3-[(5-phenyl-1,3,4-thiadiazol-2-yl)oxy]benzonitrile]
10 to 1000 nM	CN(C)c1cc(Oc2cc(C#N)ccc2-c2ncc(CN)cn2)cnn1 [compound 716, 4-[5-(aminomethyl)pyrimidin-2-yl]-3-[6-(dimethylamino)pyridazin-4-yl]oxybenzonitrile]
< 10 nM	N#Cc1ccc(-c2ccc(CCN)cn2)c(Oc2nnc(C3CC3)s2)c1 [compound 718, 4-[5-(2-aminoethyl)pyridin-2-yl]-3-[(5-cyclopropyl-1,3,4-thiadiazol-2-yl)oxy]benzonitrile]
